In paper PMC2193921 (The Journal of Experimental Medicine, 2002):

System: highly tumor reactive A2/Melan-A multimer+ CD8+ T cell clones
Settings: 4 h

CC[C@H](C)[C@H](NC(=O)CNC(=O)[C@H](C)NC(=O)[C@H](C)N)C(=O)NCC(=O)N[C@H](C(=O)N[C@@H](CC(C)C)C(=O)N[C@H](C(=O)N[C@H](C(=O)O)C(C)C)[C@@H](C)O)[C@@H](C)CC [Melan-A 27–35]
IC50: ~1 nM
